# Laboratory results: patent US11000033B2, “Ketone or oxime compound, and herbicide” (NISSAN CHEMICAL CORPORATION, priority 2014, dated 2021)
# Experiments:
# Assay type in all cases: in vivo
# Lolium multiflorum Lam. = assay: Test Example 5: herbicidal effect by foliage application, plastic box (symbol K); conditions: 320 g/ha, 3 weeks after application
# Method in brief: (§1)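 Herbicide, formulated as an emulsion and diluted in water, is sprayed onto the aerial parts of 14-day seedlings. These were grown at 25° C. to 30° C. in sterilized diluvial soil; effects are graded after 3 weeks.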
# Alopecurus myosuroides [1] = assay: Test Example 4: herbicidal effect by soil treatment (symbol J); conditions: 320 g/ha
# Method in brief: (§2)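 Seeds were sown in sterilized diluvial soil, covered with about 1.5 cm of soil, and the soil surface was sprayed with a water-diluted emulsion of the compound at a predetermined rate. Plants grew in a greenhouse at 25° C. to 30° C.; effects were scored visually 3 weeks after application.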
# corn = assay: Test Example 5: effect on crop by foliage application, plastic box (symbol c); conditions: 320 g/ha, 3 weeks after application
# Method in brief: (§3)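 Crop and weed seeds sown in spots in sterilized diluvial soil in plastic boxes and covered with about 1.5 cm soil. Plants raised in a greenhouse at 25° C. to 30° C. for foliar application.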
# Digitaria ciliaris = assay: Test Example 5: herbicidal effect by foliage application, plastic box (symbol F); conditions: 320 g/ha, 3 weeks after application
# Method in brief: as §1
# Scirpus juncoides = assay: Test Example 2: herbicidal activity, application during weed generation in submerged conditions (symbol B); conditions: Table 23; application herbicide amount 320 g/ha; grade 0-5 by criteria of Test Example 1
# Method in brief: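 Seeds sown in flooded alluvial soil (4 cm water) were grown in a 25-30° C greenhouse. At the one- to two-leaf stage, diluted emulsion of compound was applied to the water surface at a predetermined rate. Effect was scored 3 weeks later.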
# wheat [2] = assay: Test Example 5: effect on crop by foliage application, plastic box (symbol e); conditions: 320 g/ha, 3 weeks after application
# Method in brief: as §3
# soybean = assay: Test Example 5: effect on crop by foliage application, plastic box (symbol d); conditions: 320 g/ha, 3 weeks after application
# Method in brief: as §3
# Alopecurus myosuroides [3] = assay: Test Example 5: herbicidal effect by foliage application, plastic box (symbol J); conditions: 320 g/ha, 3 weeks after application
# Method in brief: as §1
# Leptochloa chinensis = assay: Test Example 3: herbicidal effect by foliage application, Wagner pot (symbol D); conditions: application herbicide amount 320 g/ha
# Method in brief: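 Plants sown in submerged alluvial soil (water depth 0.1–0.5 cm) in a 25–30 °C greenhouse and grown 14 days. An emulsion of the compound diluted in water to a set herbicide amount was sprayed uniformly on foliage. Effect on each plant scored 3 weeks after application.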
# Galium spurium = assay: Test Example 5: herbicidal effect by foliage application, plastic box (symbol Q); conditions: 320 g/ha, 3 weeks after application
# Method in brief: as §1
# wheat [4] = assay: Test Example 4: effect on crop by soil treatment (symbol e); conditions: 320 g/ha
# Method in brief: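 Plants are raised in a greenhouse (25° C. to 30° C.) from spot-sown seed, which sits under about 1.5 cm of sterilized diluvial soil in a box shared with weed species.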
# Avena fatua = assay: Test Example 4: herbicidal effect by soil treatment (symbol I); conditions: 320 g/ha
# Method in brief: as §2
# transplanted rice plant = assay: Test Example 1: effect on crop, application before weed generation in submerged conditions (symbol a); conditions: application herbicide amount 320 g/ha
# Method in brief: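 Rice at 2.5 leaf stage transplanted into submerged soil (4 cm depth) sown with three weed species; herbicide applied before weed emergence.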
# Veronica persica = assay: Test Example 4: herbicidal effect by soil treatment (symbol R); conditions: 320 g/ha
# Method in brief: as §2
structure (smiles),measurement,setting,value
CC(CC1CC(O)=C(c2c(C)cc(C)cc2C)C1=O)=NOCCS(C)(=O)=O (stereo not drawn) [1-110],"K: Lolium multiflorum Lam., herbicidal effect (criteria 0-5)",Lolium multiflorum Lam.,5 (Herbicidal ratio of 90% or more (almost completely withered))
same,"J: Alopecurus myosuroides, herbicidal effect grade",Alopecurus myosuroides [1],5 (Herbicidal ratio of 90% or more (almost completely withered))
same,"c: corn, effect on crop (criteria 0-5)",corn,5 (Herbicidal ratio of 90% or more (almost completely withered))
same,"F: Digitaria ciliaris, herbicidal effect (criteria 0-5)",Digitaria ciliaris,5 (Herbicidal ratio of 90% or more (almost completely withered))
same,"Herbicidal effect grade, B: Scirpus juncoides",Scirpus juncoides,0 (Herbicidal ratio of 5% or lower (almost no effect))
same,"e: wheat, effect on crop (criteria 0-5)",wheat [2],5 (Herbicidal ratio of 90% or more (almost completely withered))
same,"d: soybean, effect on crop (criteria 0-5)",soybean,0 (Herbicidal ratio of 5% or lower (almost no effect))
same,"J: Alopecurus myosuroides, herbicidal effect (criteria 0-5)",Alopecurus myosuroides [3],5 (Herbicidal ratio of 90% or more (almost completely withered))
same,"herbicidal effect on D (Leptochloa chinensis), grade 0-5",Leptochloa chinensis,5 (Herbicidal ratio of 90% or more (almost completely withered))
same,"Q: Galium spurium, herbicidal effect (criteria 0-5)",Galium spurium,3 (Herbicidal ratio of 40% or higher and lower than 70%)
same,"e: wheat, effect grade on crop",wheat [4],5 (Herbicidal ratio of 90% or more (almost completely withered))
same,"I: Avena fatua, herbicidal effect grade",Avena fatua,4 (Herbicidal ratio of 70% or higher and lower than 90%)
same,"Effect grade on crop, a: transplanted rice plant",transplanted rice plant,5 (Herbicidal ratio of 90% or more (almost completely withered))
same,"R: Veronica persica, herbicidal effect grade",Veronica persica,0 (Herbicidal ratio of 5% or lower (almost no effect))
CC(CC1CC(O)=C(c2c(C)cc(C)cc2C)C1=O)=NOCC1OCCO1 (stereo not drawn) [1-111],"K: Lolium multiflorum Lam., herbicidal effect (criteria 0-5)",Lolium multiflorum Lam.,5 (Herbicidal ratio of 90% or more (almost completely withered))
same,"J: Alopecurus myosuroides, herbicidal effect grade",Alopecurus myosuroides [1],5 (Herbicidal ratio of 90% or more (almost completely withered))
same,"c: corn, effect on crop (criteria 0-5)",corn,5 (Herbicidal ratio of 90% or more (almost completely withered))
same,"F: Digitaria ciliaris, herbicidal effect (criteria 0-5)",Digitaria ciliaris,5 (Herbicidal ratio of 90% or more (almost completely withered))
same,"Herbicidal effect grade, B: Scirpus juncoides",Scirpus juncoides,1 (Herbicidal ratio of 5% or higher and lower than 20%)
same,"e: wheat, effect on crop (criteria 0-5)",wheat [2],5 (Herbicidal ratio of 90% or more (almost completely withered))
same,"d: soybean, effect on crop (criteria 0-5)",soybean,3 (Herbicidal ratio of 40% or higher and lower than 70%)
same,"J: Alopecurus myosuroides, herbicidal effect (criteria 0-5)",Alopecurus myosuroides [3],5 (Herbicidal ratio of 90% or more (almost completely withered))
same,"herbicidal effect on D (Leptochloa chinensis), grade 0-5",Leptochloa chinensis,5 (Herbicidal ratio of 90% or more (almost completely withered))
same,"Q: Galium spurium, herbicidal effect (criteria 0-5)",Galium spurium,2 (Herbicidal ratio of 20% or higher and lower than 40%)
same,"e: wheat, effect grade on crop",wheat [4],5 (Herbicidal ratio of 90% or more (almost completely withered))
same,"I: Avena fatua, herbicidal effect grade",Avena fatua,3 (Herbicidal ratio of 40% or higher and lower than 70%)
same,"Effect grade on crop, a: transplanted rice plant",transplanted rice plant,5 (Herbicidal ratio of 90% or more (almost completely withered))
same,"R: Veronica persica, herbicidal effect grade",Veronica persica,0 (Herbicidal ratio of 5% or lower (almost no effect))
COc1ccc(CON=C(C)CC2CC(O)=C(c3c(C)cc(C)cc3C)C2=O)cc1 (stereo not drawn) [1-112],"K: Lolium multiflorum Lam., herbicidal effect (criteria 0-5)",Lolium multiflorum Lam.,5 (Herbicidal ratio of 90% or more (almost completely withered))
same,"J: Alopecurus myosuroides, herbicidal effect grade",Alopecurus myosuroides [1],5 (Herbicidal ratio of 90% or more (almost completely withered))
same,"c: corn, effect on crop (criteria 0-5)",corn,4 (Herbicidal ratio of 70% or higher and lower than 90%)
same,"F: Digitaria ciliaris, herbicidal effect (criteria 0-5)",Digitaria ciliaris,5 (Herbicidal ratio of 90% or more (almost completely withered))
same,"Herbicidal effect grade, B: Scirpus juncoides",Scirpus juncoides,4 (Herbicidal ratio of 70% or higher and lower than 90%)
same,"e: wheat, effect on crop (criteria 0-5)",wheat [2],5 (Herbicidal ratio of 90% or more (almost completely withered))
same,"d: soybean, effect on crop (criteria 0-5)",soybean,0 (Herbicidal ratio of 5% or lower (almost no effect))
same,"J: Alopecurus myosuroides, herbicidal effect (criteria 0-5)",Alopecurus myosuroides [3],5 (Herbicidal ratio of 90% or more (almost completely withered))
same,"herbicidal effect on D (Leptochloa chinensis), grade 0-5",Leptochloa chinensis,5 (Herbicidal ratio of 90% or more (almost completely withered))
same,"Q: Galium spurium, herbicidal effect (criteria 0-5)",Galium spurium,3 (Herbicidal ratio of 40% or higher and lower than 70%)
same,"e: wheat, effect grade on crop",wheat [4],0 (Herbicidal ratio of 5% or lower (almost no effect))
same,"I: Avena fatua, herbicidal effect grade",Avena fatua,3 (Herbicidal ratio of 40% or higher and lower than 70%)
same,"Effect grade on crop, a: transplanted rice plant",transplanted rice plant,5 (Herbicidal ratio of 90% or more (almost completely withered))
same,"R: Veronica persica, herbicidal effect grade",Veronica persica,0 (Herbicidal ratio of 5% or lower (almost no effect))
CC(CC1CC(O)=C(c2c(C)cc(C)cc2C)C1=O)=NOCc1cccc(Cl)c1 (stereo not drawn) [1-114],"K: Lolium multiflorum Lam., herbicidal effect (criteria 0-5)",Lolium multiflorum Lam.,5 (Herbicidal ratio of 90% or more (almost completely withered))
same,"J: Alopecurus myosuroides, herbicidal effect grade",Alopecurus myosuroides [1],4 (Herbicidal ratio of 70% or higher and lower than 90%)
same,"c: corn, effect on crop (criteria 0-5)",corn,1 (Herbicidal ratio of 5% or higher and lower than 20%)
same,"F: Digitaria ciliaris, herbicidal effect (criteria 0-5)",Digitaria ciliaris,5 (Herbicidal ratio of 90% or more (almost completely withered))
same,"Herbicidal effect grade, B: Scirpus juncoides",Scirpus juncoides,3 (Herbicidal ratio of 40% or higher and lower than 70%)
same,"e: wheat, effect on crop (criteria 0-5)",wheat [2],4 (Herbicidal ratio of 70% or higher and lower than 90%)
same,"d: soybean, effect on crop (criteria 0-5)",soybean,0 (Herbicidal ratio of 5% or lower (almost no effect))
same,"J: Alopecurus myosuroides, herbicidal effect (criteria 0-5)",Alopecurus myosuroides [3],4 (Herbicidal ratio of 70% or higher and lower than 90%)
same,"herbicidal effect on D (Leptochloa chinensis), grade 0-5",Leptochloa chinensis,5 (Herbicidal ratio of 90% or more (almost completely withered))
same,"Q: Galium spurium, herbicidal effect (criteria 0-5)",Galium spurium,0 (Herbicidal ratio of 5% or lower (almost no effect))
same,"e: wheat, effect grade on crop",wheat [4],0 (Herbicidal ratio of 5% or lower (almost no effect))
same,"I: Avena fatua, herbicidal effect grade",Avena fatua,3 (Herbicidal ratio of 40% or higher and lower than 70%)
same,"Effect grade on crop, a: transplanted rice plant",transplanted rice plant,5 (Herbicidal ratio of 90% or more (almost completely withered))
same,"R: Veronica persica, herbicidal effect grade",Veronica persica,0 (Herbicidal ratio of 5% or lower (almost no effect))
CC(CC1CC(O)=C(c2c(C)cc(C)cc2C)C1=O)=NOCc1ccccc1C(F)(F)F (stereo not drawn) [1-116],"K: Lolium multiflorum Lam., herbicidal effect (criteria 0-5)",Lolium multiflorum Lam.,5 (Herbicidal ratio of 90% or more (almost completely withered))
same,"J: Alopecurus myosuroides, herbicidal effect grade",Alopecurus myosuroides [1],4 (Herbicidal ratio of 70% or higher and lower than 90%)
same,"c: corn, effect on crop (criteria 0-5)",corn,5 (Herbicidal ratio of 90% or more (almost completely withered))
same,"F: Digitaria ciliaris, herbicidal effect (criteria 0-5)",Digitaria ciliaris,5 (Herbicidal ratio of 90% or more (almost completely withered))
same,"Herbicidal effect grade, B: Scirpus juncoides",Scirpus juncoides,3 (Herbicidal ratio of 40% or higher and lower than 70%)
same,"e: wheat, effect on crop (criteria 0-5)",wheat [2],3 (Herbicidal ratio of 40% or higher and lower than 70%)
same,"d: soybean, effect on crop (criteria 0-5)",soybean,3 (Herbicidal ratio of 40% or higher and lower than 70%)
same,"J: Alopecurus myosuroides, herbicidal effect (criteria 0-5)",Alopecurus myosuroides [3],5 (Herbicidal ratio of 90% or more (almost completely withered))
same,"herbicidal effect on D (Leptochloa chinensis), grade 0-5",Leptochloa chinensis,3 (Herbicidal ratio of 40% or higher and lower than 70%)
same,"Q: Galium spurium, herbicidal effect (criteria 0-5)",Galium spurium,1 (Herbicidal ratio of 5% or higher and lower than 20%)
same,"e: wheat, effect grade on crop",wheat [4],0 (Herbicidal ratio of 5% or lower (almost no effect))
same,"I: Avena fatua, herbicidal effect grade",Avena fatua,3 (Herbicidal ratio of 40% or higher and lower than 70%)
same,"Effect grade on crop, a: transplanted rice plant",transplanted rice plant,3 (Herbicidal ratio of 40% or higher and lower than 70%)
same,"R: Veronica persica, herbicidal effect grade",Veronica persica,0 (Herbicidal ratio of 5% or lower (almost no effect))
CC(CC1CC(O)=C(c2c(C)cc(C)cc2C)C1=O)=NOCc1cccc(C(F)(F)F)c1 (stereo not drawn) [1-117],"K: Lolium multiflorum Lam., herbicidal effect (criteria 0-5)",Lolium multiflorum Lam.,5 (Herbicidal ratio of 90% or more (almost completely withered))
same,"J: Alopecurus myosuroides, herbicidal effect grade",Alopecurus myosuroides [1],4 (Herbicidal ratio of 70% or higher and lower than 90%)
same,"c: corn, effect on crop (criteria 0-5)",corn,3 (Herbicidal ratio of 40% or higher and lower than 70%)
same,"F: Digitaria ciliaris, herbicidal effect (criteria 0-5)",Digitaria ciliaris,5 (Herbicidal ratio of 90% or more (almost completely withered))
same,"Herbicidal effect grade, B: Scirpus juncoides",Scirpus juncoides,3 (Herbicidal ratio of 40% or higher and lower than 70%)
same,"e: wheat, effect on crop (criteria 0-5)",wheat [2],5 (Herbicidal ratio of 90% or more (almost completely withered))
same,"d: soybean, effect on crop (criteria 0-5)",soybean,0 (Herbicidal ratio of 5% or lower (almost no effect))
same,"J: Alopecurus myosuroides, herbicidal effect (criteria 0-5)",Alopecurus myosuroides [3],5 (Herbicidal ratio of 90% or more (almost completely withered))
same,"herbicidal effect on D (Leptochloa chinensis), grade 0-5",Leptochloa chinensis,4 (Herbicidal ratio of 70% or higher and lower than 90%)
same,"Q: Galium spurium, herbicidal effect (criteria 0-5)",Galium spurium,0 (Herbicidal ratio of 5% or lower (almost no effect))
same,"e: wheat, effect grade on crop",wheat [4],0 (Herbicidal ratio of 5% or lower (almost no effect))
same,"I: Avena fatua, herbicidal effect grade",Avena fatua,0 (Herbicidal ratio of 5% or lower (almost no effect))
same,"Effect grade on crop, a: transplanted rice plant",transplanted rice plant,5 (Herbicidal ratio of 90% or more (almost completely withered))
same,"R: Veronica persica, herbicidal effect grade",Veronica persica,0 (Herbicidal ratio of 5% or lower (almost no effect))
